Where two headings read alike, the source gives them in different places.
Legend:
Type in all cases: cell-based, human
[1] = tested on: Nrf2; assay: Expression of Nrf2-regulated genes GCLM and NQO1 by qRT-PCR in Beas-2B cells (screen); conditions: Homo sapiens, BEAS-2B, 16 h
Protocol: To investigate the potency of the presently disclosed chalcone derivatives to activate Nrf2, the expression of antioxidant genes, GCLM and NADPH-NQO1, two well characterized transcriptional targets of Nrf2, were measured as surrogate markers. By “marker” is meant any protein or polynucleotide having an alteration in expression level or activity that is associated with a disease, disorder, or condition. It has been previously shown that oxidants or small molecule activators of Nrf2 increase GCLM and NQO1 in cells or tissues of wild-type, but not in Nrf2-deficient mice. Osburn, W. O., et al., Genetic or pharmacologic amplification of Nrf2 signaling inhibits acute inflammatory liver injury in mice. Toxicol. Sci. 2008, 104(1), 218-227. […]
RNA was isolated and gene expression was measured after 16 h.
Total RNA was extracted from cells/tissue using Qiagen RNeasy kit (Qiagen Corporation, Valencia, Calif.) and reverse transcription was performed by using random hexamers and MultiScribe reverse transcriptase according to the manufacturer's recommendations (Applied Biosystems, Foster City, Calif., USA). Quantitative real-time RT-PCR analyses of Nrf2, NQO1, HO1, and GCLM were performed by using Assay-on-Demand primers and probe sets from Applied Biosystems. Assays were performed using the ABI 7000 Taqman system (Applied Biosystems, Foster City, Calif.). β-actin was used for normalization.

[2] = tested on: Beas-2B cells; assay: Cell viability / cytotoxicity (MTT assay) in Beas-2B cells; conditions: 24 h, DMSO = 100
Protocol: Concurrent with the gene expression analysis, the cytotoxicity of the chalcone derivatives was determined using the MTT assay.
Mad. Chem. 2007, 15, 2952-2962. […] Four hours before the end of incubation, the medium was removed and 100 μL of MTT (5 mg/mL in serum free medium) was added to each well. The MTT was removed after 4 h, cells were washed with PBS, and 100 μL DMSO was added to each well to dissolve the water-insoluble MTT-formazan crystals. The absorbance was recorded at 570 nm in a plate reader (Molecular Devices, Sunnyvale, Calif.).

[3] = tested on: Nrf2; assay: Nrf2-regulated gene expression with or without N-acetyl-cysteine in Beas-2B cells; conditions: NAC 10 mM alone, 24 h
Protocol: Cells were harvested 24 h after the treatment and the Nrf2-driven expression of NQO1, HO-1, and GCLM was quantified. β-actin was used for normalization. Data are representative of three independent experiments. Values shown are mean±SD of triplicate wells (P≦0.05);
The activation of Nrf2 by various electrophiles and compounds that are Michael acceptors is attributed to changes in ROS production and or redox environment and or direct cysteine modification in Keap1. Nguyen, T., et al., The Nrf2-antioxidant response element signaling pathway and its activation by oxidative stress. J. Biol. Chem. 2009, 284, 13291-13295; McMahon, M., et al., Keap1 perceives stress via three sensors for the endogenous signaling molecules nitric oxide, zinc, and alkenals. Proc. Natl. Acad. Sci. U.S.A. 2010, 107, 18838-18843. Whether 2b activates Nrf2 by generating ROS or redox changes also was examined.

[4] = DMSO = 1.0 (Table 2), read-out: Relative Fold Change GCLM
[5] = DMSO = 1.0 (Table 2), read-out: Relative Fold Change NQO1
[6] = DMSO = 1 (Table 3), read-out: Relative Fold Change GCLM
[7] = DMSO = 1 (Table 3), read-out: Relative Fold Change NQO1

| SMILES | fold induction at 10 µM [1, 4] | fold induction at 10 µM [1, 5] | fold induction at 10 µM [1, 6] | fold induction at 10 µM [1, 7] | % Cell Viability [2] | induction of Nrf2-regulated genes, NAC alone [3] |
| --- | --- | --- | --- | --- | --- | --- |
| COc1cc(OC)cc(C(=O)/C=C/c2ccccc2C(F)(F)F)c1 [Compound 2i, (E)-1-(3,5-dimethoxyphenyl)-3-(2-(trifluoromethyl)phenyl)prop-2-en-1-one] | 4 | 3.7 | 4 | 3.7 | 87.1% |  |
| COc1cc(OC)cc(C(=O)/C=C/c2cccc(C(F)(F)F)c2)c1 [Compound 3i, (E)-1-(3,5-dimethoxyphenyl)-3-(3-(trifluoromethyl)phenyl)prop-2-en-1-one] | 3.8 | 3.9 | 3.8 | 3.9 | 108.2% |  |
| COc1ccc(C(=O)/C=C/c2ccc(C(F)(F)F)cc2)cc1 [Compound 4d, (E)-1-(4-methoxyphenyl)-3-(4-(trifluoromethyl)phenyl)prop-2-en-1-one] | 3.5 | 4.6 | 3.5 | 4.6 | 104.1% |  |
| C[S+]([O-])CCCCN=C=S (stereo not shown) [Sulforaphane, reference compound] | 2.7 | 3.6 | 2.7 | 3.6 | 97.3% |  |
| COc1ccccc1C(=O)/C=C/c1ccc(C(F)(F)F)cc1 [Compound 4b, (E)-1-(2-methoxyphenyl)-3-(4-(trifluoromethyl)phenyl)prop-2-en-1-one] | 4.3 | 5.4 | 4.3 | 5.4 | 91% |  |
| O=C(/C=C/c1ccccc1C(F)(F)F)c1ccccc1 [Compound 2a, (E)-1-phenyl-3-(2-(trifluoromethyl)phenyl)prop-2-en-1-one] | 5 | 5.3 | 5 | 5.3 | 144.8% |  |
| COc1ccc(C(=O)/C=C/c2ccccc2C(F)(F)F)cc1 [Compound 2d, (E)-1-(4-methoxyphenyl)-3-(2-(trifluoromethyl)phenyl)prop-2-en-1-one] | 5.4 | 4.6 | 5.4 | 4.6 | 96% |  |
| CC(=O)N[C@@H](CS)C(=O)O [NAC, N-acetyl-cysteine, reference compound] |  |  |  |  |  | no induction of Nrf2-regulated genes |
| COc1ccc(C(=O)/C=C/c2ccccc2C(F)(F)F)c(OC)c1OC [Compound 2k, (E)-1-(2,3,4-trimethoxyphenyl)-3-(2-(trifluoromethyl)phenyl)prop-2-en-1-one] | 5.4 | 4.1 | 5.4 | 4.1 | 101.6% |  |
| COc1cccc(C(=O)/C=C/c2cccc(C(F)(F)F)c2)c1 [Compound 3c, (E)-1-(3-methoxyphenyl)-3-(3-(trifluoromethyl)phenyl)prop-2-en-1-one] | 4.6 | 3.5 | 4.6 | 3.5 | 95.3% |  |
| COc1cc(OC)cc(C(=O)/C=C/c2ccccc2[N+](=O)[O-])c1 [Compound 5i] | 3.4 | 4.1 | 3.4 | 4.1 | 90.9% |  |
| COc1cccc(OC)c1C(=O)/C=C/c1ccccc1[N+](=O)[O-] [Compound 5f] | 4.1 | 3.7 | 4.1 | 3.7 | 75.8% |  |
| COc1cccc(OC)c1C(=O)/C=C/c1ccccc1C(F)(F)F [Compound 2f, (E)-1-(2,6-dimethoxyphenyl)-3-(2-(trifluoromethyl)phenyl)prop-2-en-1-one] | 5.7 | 5.3 | 5.7 | 5.3 | 101.1% |  |
| COc1cccc(C(=O)/C=C/c2ccccc2C(F)(F)F)c1 [Compound 2c, (E)-1-(3-methoxyphenyl)-3-(2-(trifluoromethyl)phenyl)prop-2-en-1-one] | 5.6 | 4.3 | 5.6 | 4.3 | 96.6% |  |
| COc1ccc(OC)c(C(=O)/C=C/c2ccc(C(F)(F)F)cc2)c1 [Compound 4g] | 4.1 | 4 | 4.1 | 4 | 91.6% |  |
| COc1ccc(C(=O)/C=C/c2ccccc2C(F)(F)F)c(OC)c1 [Compound 2e, (E)-1-(2,4-dimethoxyphenyl)-3-(2-(trifluoromethyl)phenyl)prop-2-en-1-one] | 5.4 | 4.5 | 5.4 | 4.5 | 105% |  |
| COc1ccc(C(=O)/C=C/c2ccc(C(F)(F)F)cc2)c(OC)c1OC [Compound 4j] | 4.1 | 3.9 | 4.1 | 3.7 | 100.1% |  |
| COc1ccc(C(=O)/C=C/c2ccc(C(F)(F)F)cc2)c(OC)c1 [Compound 4e, (E)-1-(2,4-dimethoxyphenyl)-3-(4-(trifluoromethyl)phenyl)prop-2-en-1-one] | 5 | 4.8 | 5 | 4.8 | 92.6% |  |
| COc1cc(OC)c(C(=O)/C=C/c2ccccc2C(F)(F)F)c(OC)c1 [Compound 2l, (E)-1-(2,4,6-trimethoxyphenyl)-3-(2-(trifluoromethyl)phenyl)prop-2-en-1-one] | 4.4 | 4.3 | 4.4 | 4.3 | 145.3% |  |

Reference: patent publication US20140088052A1, “CHALCONE DERIVATIVES AS NRF2 ACTIVATORS” (THE JOHNS HOPKINS UNIVERSITY, priority 2011, published 2014)
